Data taken from patent publication US9884066B2, “Bile acid-basic amino acid conjugates and uses thereof” (priority 2013, dated 2018).
Values joined by “and” are separate entries in the source; they are usually repeats but may differ in a detail not shown here. Equal entries are not always repeated. Where two headings read alike, the source gives them in different places.

Experiments:
[1] = system: livers of mice fed a high fat diet (HFD); assay: Histological evaluation of livers by H&E staining, scored by Modified Brunt Criteria (five-week HFD model); assay type: in vivo, C57BL mice; settings: end of week 5; for Portal inflammation / Ballooning and disarray / Fibrosis: score per liver section; for Ballooning and disarray: * = and megakarya; for Fibrosis: ** = oval cell proliferation
Description: For liver histology, animals were sacrificed and liver tissues were removed and fixed in 4% formalin at room temperature. Liver sections were subjected to Hematoxylin-Eosin staining (PathoVet Veterinary Pathology Services, Rehovot, Israel).
Histological evaluation of livers was performed by H&E staining at the end of week 5. In the figure, arrows indicate micro and macrovesicular steatosis, and arrow heads indicate hepatocyte ballooning. […] This histological observation was in correlation with the elevated levels of blood liver enzymes SGOT and SGPT described above.

[2] = system: mice fed a high fat diet (HFD); assay: High fat diet (HFD) model in mice, five-week feeding with supplemented diets
[3] = system: mice fed a high fat diet (HFD); settings: for Liver weight: FIG. 12d
Source text: Mice were randomly divided into two dietary groups:
1) Control diet: low-fat diet (LFD), 16% calories from fat (n=5);
2) High-fat diet (HFD): 60% calories from fat (mainly palm stearin) (n=16).
In order to determine the effects of CDCArg following the onset of liver steatosis, mice were first treated for 10 weeks with HFD to develop hepatic fat accumulation. Thereafter, the HFD-fed mice were divided to two equal groups (n=8 in each group): (a) continued the previous HFD treatment, and (b) HFD+CDCArg 0.5% w/w. In this part of the experiment mice were pair-fed (15.5 kCal/day per mice). The LFD control group consumed on average the same amount of calories per day per mice. The duration of treatment with CDCArg was four (4) weeks. Food consumption and gain of weight were evaluated.
To assess the impact of CDCArg on intestinal absorption, fecal lipid contents were measured before and after CDCArg consumption. Total lipids were extracted from feces using Folch's method (Folch et al., 1957, J Biol Chem, 226:497-509) after collecting feces during weeks 9-10 and 12-13. […] The effect of CDCArg on insulin resistance was evaluated using intraperitoneal glucose tolerance test (IPGTT). Glucose tolerance was assessed in the mice during the eighth and fourteenth weeks of the study (before and after the beginning of treatment with CDCArg). IPGTT was performed in 12 hours-fasted mice by injecting glucose (2 g/kg in 20% solution) intraperitoneally. Blood samples were obtained by cutting the tail tip and glucose concentration was measured after 0, 30, 60, 90, and 120 minutes.

PGC1α = assay: Liver gene expression, mRNA by reverse-transcription and real time PCR; assay type: in vivo, mice; settings: GAPDH normalizing gene; FIG. 13A
Source text: (§1) FIG. 13. Effect of CDCArg on lipogenic gene expression and energy expenditure related genes in the liver. Treatments: mice were fed with LFD for 14 weeks or with HFD for 10 weeks. At week 10 the HFD group was divided randomly into two equal groups that were pair fed. One group received HFD, while the other group received HFD+CDCArg. mRNA levels of (A) PGC1α, (B) PPARα. (C) Protein level of sterol regulatory element binding protein 1c (SREBP1). *p<0.05, statistically different from control by student t-test. GAPDH was used as housekeeping normalizing gene.
(§2) Gene expression analyses of PPARα and PGC1α were performed by quantifying mRNA levels by reverse-transcription and real time PCR. GAPDH (glyceraldehyde 3-phosphate dehydrogenase) was used as housekeeping normalizing gene. The following primers were used: […]

PPARα = assay: as above; assay type: in vivo, mice; settings: GAPDH normalizing gene; FIG. 13B
Source text: as §1, §2

SREBP1c = assay: Liver protein level by Western blot; assay type: in vivo, mice; settings: beta-actin as control; FIG. 13C
Source text: as §1
SREBP1c was analyzed by Western blot analysis using beta-actin as control. Abs: Anti SREBP-1 Santa Cruse (Sc-367); Secondary goat Anti-Rabbit IgG, Jackson ImmunoResearch, Mouse Anti-Actin (612656) BD Transduction Laboratories. Secondary goat Anti-mouse IgG, Jackson ImmunoResearch.

[4] = system: mice fed a high fat diet (HFD); assay: Intraperitoneal glucose tolerance test (IPGTT) in HFD-fed mice; assay type: in vivo; settings: week fourteen; glucose 2 g/kg i.p., 12 hours-fasted; FIG. 11
Source text: FIG. 11. Effect of CDCArg on insulin resistance as evaluated by intra-peritoneal glucose tolerance test (IPGTT). (A) IPGTT performed at weeks eight and (B) fourteen (before and after the beginning of treatment). Values are expressed as mean±SEM (n=8-9 animals per group). Means with * are statistically higher than Control group, p<0.05 (t.test (a) one way ANOVA, Post Hoc dunnett test (b)).

AMPK = assay: Liver AMPK and pAMPK levels by Western blot; assay type: in vivo, mice
Description: The levels of AMPK and pAMPK were analyzed using Western blot analysis.

[5] = system: mice fed a high fat diet (HFD); settings: mouse, in vivo

## N=C(N)NCCC[C@H](N)C(=O)O [Arg, L-arginine, reference compound]
[1]; FIG. 9
  Liver damage by histology (H&E staining): increased liver damage
[1]
  Portal inflammation: 0
  Ballooning and disarray: 0
  Fibrosis: 0
[2]; end of week 5, FIG. 5a
  Average triglycerides in the blood: higher level of blood triglycerides
[2]; end of week 5, compared to control low fat diet, FIG. 4
  Average total cholesterol in the blood: significantly increased levels of total blood cholesterol

## CCOC(=O)[C@H](CCCNC(=N)N)NC(=O)CC[C@@H](C)[C@H]1CC[C@H]2[C@@H]3[C@H](O)C[C@@H]4C[C@H](O)CC[C@]4(C)[C@H]3CC[C@]12C [CDCArg, Chenodeoxycholyl-Arginine-Ethyl Ester]
[1]
  Portal inflammation: 0 and 1
  Ballooning and disarray: 0
  Fibrosis: 0
[3]; HFD+CDCArg 0.5% w/w for 4 weeks after 10 weeks HFD, vs continued HFD, FIG. 10a
  Body weight gain: prevented this weight gain
[3]; HFD+CDCArg compared to the HFD group, FIG. 10b
  Adipose tissue weight: substantially lower
[3]; HFD+CDCArg vs HFD group, FIG. 12e
  Liver micro and macro steatosis (histological evaluation): lesser liver micro and macro steatosis
[3]; HFD+CDCArg vs HFD group
  Liver weight: significantly lower
[3]; HFD+CDCArg vs control (LFD) group
  Liver weight: even lesser than in control
[3]; mouse, in vivo
  Alkaline phosphatase levels in plasma: not significantly altered
  Plasma albumin levels: significantly higher
[3]; plasma, HFD+CDCArg compared with the HFD group, FIG. 12a
  SGPT levels: significantly lower
[3]; plasma, HFD+CDCArg compared with the HFD group, FIG. 12b
  SGOT levels: significantly lower
[3]; weeks 12-13, Folch's method, FIG. 10d
  Fat contents in feces: significantly higher
PGC1α
  PGC1α mRNA level in the liver: activated
PPARα
  PPARα mRNA level in the liver: activated
SREBP1c
  SREBP1c protein expression in the liver: suppress the protein expression
[4]
  Area under the curve of the glycemic response (IPGTT): decreasing the area under the curve of the glycemic response
  Peak glucose values in the IPGTT: lowering the peak glucose values
[2]; end of week 5, compared to HFD alone or HFD+Arg, FIG. 3
  Average weight of adipose tissue (testicular fat): significantly lower increase in testicular fat weight
[2]; end of week 5, compared to control diet, FIG. 7
  Average liver weight: no difference in liver weight compared to control
[2]; five weeks, among groups that consumed a high fat diet, FIG. 2
  Average body weight (increase): lowest increase in body weight
[2]; five weeks, compared to the HFD group, FIG. 8b
  Plasma level of insulin: significantly decreased
[2]; five weeks, compared to the HFD group, FIG. 8c
  Plasma level of leptin: significantly decreased
AMPK
  Ratio of phosphorylated AMPK (pAMPK) to AMPK: tending to be higher
[5]
  General toxicity (plasma creatinine, sodium, potassium and chloride levels): without toxicity effects
  Saturated fat-induced liver damage (blood SGOT, SGPT): did not potentiate saturated fat-induced liver damage
